Values of other authors, collected in patent US11839630B2, “CAR-T cells targeting IL-1RAP and their use” (ETABLISSEMENT FRANCAIS DU SANG, priority 2017, dated 2023).

Legend:
[1] = system: CML; conditions: cited from earlier work
[2] = system: CML; conditions: cited from earlier work; remark: listed apart in the source

Cc1ccc(NC(=O)c2ccc(CN3CCN(C)CC3)cc2)cc1Nc1nccc(-c2cccnc2)n1 [Imatinib]
patients relapsed after discontinuation ([1]; 42 of 69 patients, treatment of more than 2 years discontinued): 61% | probability of persistent molecularly undetectable leukemia ([1]; at 12 months, 69 patients): 41% | rate of molecular relapse after stopping TKI ([2]; n=100 patients with complete molecular response): 61% | median time of molecular relapse ([2]; n=100 patients): 2.5 months
